From US10987349B2, “Antitumor agent and bromodomain inhibitor” (FUJIFILM Corporation, priority 2016, dated 2021) come the findings set out here.

For one assay, the target named is T1, BRD3 BD2 (Homo sapiens, UniProt Q15059).
T1 construct: BRD2 BD2, BRD3 BD2 and BRD4 BD2 (Cisbio); purchased Cisbio
The experiment in a line: Binding assay, BRD3 BD2 to acetylated histone H4 Peptide-Biotin (EPIgeneous Binding Domain Kit B). The settings on record: for inhibition at 0.3 µM: test compound at 300 nmol/L, read-out: Binding inhibition percentage BRD3 BD2. A digest of the protocol: (§1)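 HTRF binding of GST-tagged BD2 (20 nmol/L working stock) to biotinylated acetyl-histone H4 peptide (250 nmol/L working stock), using streptavidin-XL665 and anti-GST Eu cryptate. Incubated 20 h at room temperature; 665/620 nm ratio versus DMSO gives % inhibition; IC50 by four-parameter fit, or % inhibition at 300 nmol/L.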

In the next assay the target is T2, BRD3 BD1 (Homo sapiens, UniProt Q15059).
T2 construct: BRD2 BD1, BRD3 BD1 and BRD4 BD1 (Cisbio); purchased Cisbio
T2 sequence (Q15059 34-140 limits assumed): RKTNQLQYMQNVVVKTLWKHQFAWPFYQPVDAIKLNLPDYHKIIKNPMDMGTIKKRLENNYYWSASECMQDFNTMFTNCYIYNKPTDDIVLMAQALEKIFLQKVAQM
The experiment in a line: Binding assay, BRD3 BD1 to acetylated histone H4 Peptide-Biotin (EPIgeneous Binding Domain Kit A). The settings on record: for inhibition at 0.3 µM: test compound at 300 nmol/L, read-out: Binding inhibition percentage BRD3 BD1. The essentials:
(§2)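 HTRF competition: bromodomain protein (added at 20 nmol/L) and biotinylated tetra-acetyl H4(1-25) peptide (added at 25 nmol/L) were incubated with compound, streptavidin-d2 and anti-GST Eu cryptate for 20 h at room temperature. Inhibition came from the 665/620 nm ratio relative to DMSO; IC50 by four-parameter fit; some compounds were tested only at 300 nmol/L final.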

In assay [1] the test system is human undifferentiated thymoma cell line Ty-82. As to the kind of experiment: Cell growth test (Cell Titer Glo) Ty-82. It is filed as cell-based. The settings on record: TY82, 3 to 5 days. An excerpt:
(§3) The human undifferentiated thymoma cell line Ty-82 (JCRB), the human acute myeloid leukemia cell lines MV4-11 (ATCC), MOLM-13 (ATCC) and RS4-11 (ATCC), the human lymphoma cell line Raji (JCRB), the human cervical epidermoid carcinoma cell line Hela (JCRB), the human lung adenocarcinoma cell line A549 (ATCC), the human colon cancer cell lines DLD1 (DS Pharma) and HCT116 (DS Pharma), and the human pancreatic cancer cell line MIAPACA-2 (ATCC) were used to carry out a cell growth test.
(§4) Ty-82, MV4-11, MOLM-13, RS4-11, Raji and DLD1 were each seeded in a well plate, in which Roswell Park Memorial Institute (RPMI)-1640 medium supplemented with penicillin/streptomycin and fetal bovine serum (FBS) with a final concentration of 10% was placed. Hela was seeded in Dulbecco's Modified Eagle's medium (DMEM) supplemented with penicillin/streptomycin and FBS with a final concentration of 10%. A549 and MIAPACA-2 were each seeded in a well plate, in which Minimum Essential Medium (MEM) supplemented with penicillin/streptomycin and FBS with a final concentration of 10% was placed. HCT116 was seeded in a well plate, in which McCoy's 5A medium supplemented with penicillin/streptomycin and FBS with a final concentration of 10% was placed.
(§5) Thereafter, a medium containing a test compound serially diluted with DMSO, or DMSO, was added to each well of the plate, in which the cells had been seeded, and the obtained mixture was then cultured under conditions of 37° C. and 5% CO2 for 3 to 5 days. Cell Titer Glo reaction solution (Promega) was added to the culture, and the amount of luminescence was then measured using Envision plate reader (PerkinElmer). Since the amount of luminescence is in proportion to the concentration of adenosine triphosphate (ATP) in cells, the amount of luminescence was used as an indicator of the number of living cells. The growth inhibition percentage of the test compound in each concentration was calculated according to the following equation. Growth inhibition percentage (%)=(amount of luminescence in test compound−added well)/(amount of luminescence in DMSO−added well)×100
(§6) The growth inhibition percentage of the test compound in each concentration was plotted by performing a non-linear regression analysis [(log (inhibitor) vs. response—Variable slope (four parameters)], using Graphpad prism 5, and a 50% growth inhibitory concentration [GI50 (nmol/L)] was then calculated.
On the technique in general: ATP-based viability assays read luminescence as a measure of living cells.

The next assay has as its target T3, BRD2 BD2 (Homo sapiens, UniProt P25440).
T3 construct: BRD2 BD2, BRD3 BD2 and BRD4 BD2 (Cisbio); purchased Cisbio
As to the kind of experiment: Binding assay, BRD2 BD2 to acetylated histone H4 Peptide-Biotin (EPIgeneous Binding Domain Kit B). The settings on record: for inhibition at 0.3 µM: test compound at 300 nmol/L, read-out: Binding inhibition percentage BRD2 BD2. A digest of the protocol: as §1

The subject of assay [2] is human acute myeloid leukemia cell line MOLM-13. The experiment in a line: Cell growth test (Cell Titer Glo) MOLM-13. It is filed as cell-based. The settings on record: 3 to 5 days.
Description: as §3, §4, §5, §6

Assay [3] has as its system human acute myeloid leukemia cell line MV4-11. As to the kind of experiment: Cell growth test (Cell Titer Glo) MV4-11. The class given is cell-based. The settings on record: 3 to 5 days.
Description: as §3, §4, §5, §6

Another assay has as its target T4, BRD2 BD1 (Homo sapiens, UniProt P25440).
T4 construct: BRD2 BD1, BRD3 BD1 and BRD4 BD1 (Cisbio); purchased Cisbio
The experiment in a line: Binding assay, BRD2 BD1 to acetylated histone H4 Peptide-Biotin (EPIgeneous Binding Domain Kit A). The settings on record: for inhibition at 0.3 µM: test compound at 300 nmol/L, read-out: Binding inhibition percentage BRD2 BD1. The essentials:
as §2

Another assay has as its target T5, BRD4 BD2 (Homo sapiens, UniProt O60885).
T5 construct: BRD2 BD2, BRD3 BD2 and BRD4 BD2 (Cisbio); purchased Cisbio
As to the kind of experiment: Binding assay, BRD4 BD2 to acetylated histone H4 Peptide-Biotin (EPIgeneous Binding Domain Kit B). The settings on record: for inhibition at 0.3 µM: test compound at 300 nmol/L, read-out: Binding inhibition percentage BRD4 BD2. The essentials: as §1

The target of another assay is T6, BRD4 BD1 (Homo sapiens, UniProt O60885).
T6 construct: BRD2 BD1, BRD3 BD1 and BRD4 BD1 (Cisbio); purchased Cisbio
The experiment in a line: Binding assay, BRD4 BD1 to acetylated histone H4 Peptide-Biotin (EPIgeneous Binding Domain Kit A). The settings on record: for inhibition at 0.3 µM: test compound at 300 nmol/L, read-out: Binding inhibition percentage BRD4 BD1. A digest of the protocol: as §2

For assay [4], the system named is MV4-11 subcutaneously transplanted tumor. The experiment in a line: Medicinal effect test, MV4-11-subcutaneously-transplanted cancer-bearing mouse models, oral administration. It is filed as in vivo. The settings on record: orally, once per day, 14 days, BALB/c nu/nu mice. The method, then: The human acute myeloid leukemia cell line MV4-11 (ATCC) was suspended in a mixture of RPMI-1640 medium and Matrigel (Corning), and the obtained mixture was then subcutaneously transplanted into 6-week-old female BALB/c nu/nu mice (CLEA Japan, Inc.). After confirming that the average tumor volume exceeded 200 mm^3, a test compound was dissolved in a solvent (a 0.5% methyl cellulose aqueous solution or water containing 1 equivalent of hydrochloric acid), and the obtained solution was then orally administered to the mice at a daily dose of 10 to 30 mg/kg, once per day, for 14 days. As a negative control, a solvent administration group involving administration of a 0.5% methyl cellulose aqueous solution was established. The tumor diameter was measured on a daily basis, and the tumor volume was calculated. The tumor volume was calculated by measuring the major axis and minor axis of the tumor and then applying the following equation. Tumor volume (mm^3)=[major axis (mm)×minor axis (mm)×minor axis (mm)]/2
T/C (%) was calculated from the average tumor volume of each group according to the following equation, and medicinal effects were then evaluated. T/C(%)=[1−(average tumor volume of drug administration group)/(average tumor volume of solvent administration group)]×100%

T4 sequence (P25440 74-180 limits assumed): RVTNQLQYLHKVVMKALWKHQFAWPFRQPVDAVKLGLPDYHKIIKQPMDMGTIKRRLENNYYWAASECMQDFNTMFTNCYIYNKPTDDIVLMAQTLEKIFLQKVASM
T1 sequence (Q15059 306-415 limits assumed): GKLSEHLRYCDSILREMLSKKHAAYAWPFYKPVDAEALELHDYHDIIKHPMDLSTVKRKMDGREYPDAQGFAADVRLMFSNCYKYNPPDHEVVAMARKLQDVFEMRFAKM
T3 sequence (P25440 344-453 limits assumed): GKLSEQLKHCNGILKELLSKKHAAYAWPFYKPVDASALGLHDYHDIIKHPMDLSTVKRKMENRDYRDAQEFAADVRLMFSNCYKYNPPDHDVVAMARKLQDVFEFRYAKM

As to `CCn1c(=O)cc(C2CCN(C)CC2)c2cc(C(=O)N3CCCc4ccccc43)ccc21` [Example 11, 6-(3,4-dihydroquinolin-1 (2H)-ylcarbonyl)-1-ethyl-4-(1-methylpiperidin-4-yl)quinolin-2(1H)-one], the inhibition at 0.3 µM was determined as 83% at BRD3 BD2; 94% on BRD3 BD1; 79% at BRD2 BD2; 94% on BRD2 BD1; 83% on BRD4 BD2; 94% at BRD4 BD1. For the same compound, the 50% growth inhibitory concentration (GI50) in assay [1] worked out at 23 nM; in assay [2] it was 44 nM; in assay [3], 22 nM.

As to `CCn1c(=O)cc(N2CCOCC2)c2cc(-n3c(-c4ccc(Cl)cc4)cn(C)c3=O)ccc21` [Example 246, 6-(5-(4-chlorophenyl)-3-methyl-2-oxo-2,3-dihydro-1H-imidazol-1-yl)-1-ethyl-4-(morpholin-4-yl)quinolin-2(1H)-one], the half-inhibitory concentration (IC50) on BRD3 BD2 was 12 nM; at BRD3 BD1 it was 91 nM; on BRD2 BD2 it was 18 nM; on BRD2 BD1, 144 nM; at BRD4 BD2 it was 7 nM; at BRD4 BD1 it was 40 nM. Besides, the inhibition at 0.3 µM at BRD3 BD2 came to 90%; at BRD3 BD1 it was 55%; at BRD2 BD2, 82%; at BRD2 BD1, 34%; on BRD4 BD2, 84%; on BRD4 BD1, 67%. Further, the “T/C (%)” value in [4] (10 mg/kg) was found to be 13%; in [4] (30 mg/kg) it was 33%. In addition, the GI50 in assay [1] was found to be 17 nM; in [2], 43 nM; in assay [3] it was 16 nM.

As for `CCn1c(=O)cc(N2CCOCC2)c2cc(-n3c(-c4ccccc4)cn(C(C)C)c3=O)ccc21` [Example 247, 1-ethyl-4-(morpholin-4-yl)-6-(2-oxo-5-phenyl-3-(propan-2-yl)-2,3-dihydro-1H-imidazol-1-yl)quinolin-2(1H)-one], the inhibition at 0.3 µM at BRD3 BD2 stood at 91%; on BRD3 BD1, 93%; at BRD2 BD2, 90%; on BRD2 BD1, 83%; on BRD4 BD2, 89%; on BRD4 BD1, 94%. The “T/C (%)” value in assay [4] (30 mg/kg) was found to be 33%. Besides, the GI50 was 11 nM in assay [1], 43 nM in assay [2] and 16 nM in assay [3].

What is called inhibition is the relative decrease from the control value, in per cent. Usually GI50 stands for the concentration at which growth is held to half of that of the control. A lower GI50 goes with more potent growth inhibition. One may read the IC50 as the concentration at which inhibition is half-maximal.
